Results on 20 compounds are retold here after patent US10479780B2, “Aminopyrazole derivatives” (Chugai Seiyaku Kabushiki Kaisha, priority 2015, dated 2019).

What all share (type): biochemical
One assay concerns the target T1, human Lck enzyme (Homo sapiens, UniProt P06239).
T1 construct: purchased Carna Biosciences, Inc. 08-170
Kind of assay: Lck enzyme inhibitory activity (time-resolved fluorometry, biotinylated peptide phosphorylation). Conditions: read-out: LCK_IC50. Put shortly:
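Readout pairs a europium cryptate-labelled anti-phosphotyrosine antibody with XL665-streptavidin, measured by time-resolved fluorescence. IC50 derived from percent inhibition against untreated controls.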

A further assay concerns the target T2, human Yes1 enzyme (Homo sapiens, UniProt P07947).
T2 construct: made in house
Kind of assay: Yes1 enzyme inhibitory activity (time-resolved fluorometry, biotinylated peptide phosphorylation). Conditions: read-out: YES_IC50. The gist of the method: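 Inhibition was expressed against a compound-free control to give IC50, using TR-FRET read-out (Eu-cryptate anti-pTyr antibody, streptavidin-XL665).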

The target in a further assay is T3, human Src enzyme (Homo sapiens, UniProt P12931).
T3 construct: purchased Carna Biosciences, Inc. 08-173
T3 sequence (P12931 whole entry): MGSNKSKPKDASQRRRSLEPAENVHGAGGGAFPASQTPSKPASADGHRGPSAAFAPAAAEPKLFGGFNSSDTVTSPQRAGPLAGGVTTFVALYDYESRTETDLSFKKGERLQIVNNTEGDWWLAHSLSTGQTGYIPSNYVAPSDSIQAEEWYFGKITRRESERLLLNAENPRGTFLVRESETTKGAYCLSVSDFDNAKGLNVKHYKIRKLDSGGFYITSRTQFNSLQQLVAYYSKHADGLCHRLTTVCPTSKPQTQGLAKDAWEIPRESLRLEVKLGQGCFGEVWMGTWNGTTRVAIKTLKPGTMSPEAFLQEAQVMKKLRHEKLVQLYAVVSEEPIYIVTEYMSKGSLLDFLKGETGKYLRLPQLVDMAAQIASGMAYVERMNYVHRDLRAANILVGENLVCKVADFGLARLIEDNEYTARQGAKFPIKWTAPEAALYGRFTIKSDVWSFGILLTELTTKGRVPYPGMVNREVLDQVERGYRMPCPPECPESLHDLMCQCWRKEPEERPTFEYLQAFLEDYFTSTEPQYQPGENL
The assay can be described thus: Src enzyme inhibitory activity (time-resolved fluorometry, biotinylated peptide phosphorylation). The conditions noted are these: read-out: SRC_IC50. The gist of the method: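 Compounds were tested for blocking tyrosine phosphorylation of a biotinylated peptide substrate by recombinant human Src. Phosphorylated product was quantified by time-resolved fluorometry using europium cryptate and XL665 conjugates, and IC50 was calculated against the compound-free control.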

Where [1] appears, read: biotinylated peptide phosphorylation.

SMILES strings stand for the structures. Like-named read-outs stand apart in the source and are kept apart here.

T1 sequence (P06239 whole entry): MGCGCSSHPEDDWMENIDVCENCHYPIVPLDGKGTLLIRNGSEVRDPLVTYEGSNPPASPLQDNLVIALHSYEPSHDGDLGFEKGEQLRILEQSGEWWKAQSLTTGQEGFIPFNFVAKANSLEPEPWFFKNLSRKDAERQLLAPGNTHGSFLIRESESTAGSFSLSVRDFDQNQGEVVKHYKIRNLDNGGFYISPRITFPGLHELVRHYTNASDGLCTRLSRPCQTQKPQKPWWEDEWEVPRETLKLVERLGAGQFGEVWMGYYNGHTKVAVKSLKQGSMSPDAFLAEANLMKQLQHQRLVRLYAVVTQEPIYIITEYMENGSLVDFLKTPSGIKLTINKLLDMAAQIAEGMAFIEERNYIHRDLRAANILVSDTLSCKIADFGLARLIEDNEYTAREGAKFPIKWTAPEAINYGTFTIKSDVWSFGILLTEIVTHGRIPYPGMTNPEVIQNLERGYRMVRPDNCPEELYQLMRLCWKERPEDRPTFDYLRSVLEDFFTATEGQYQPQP
T2 sequence (P07947 whole entry): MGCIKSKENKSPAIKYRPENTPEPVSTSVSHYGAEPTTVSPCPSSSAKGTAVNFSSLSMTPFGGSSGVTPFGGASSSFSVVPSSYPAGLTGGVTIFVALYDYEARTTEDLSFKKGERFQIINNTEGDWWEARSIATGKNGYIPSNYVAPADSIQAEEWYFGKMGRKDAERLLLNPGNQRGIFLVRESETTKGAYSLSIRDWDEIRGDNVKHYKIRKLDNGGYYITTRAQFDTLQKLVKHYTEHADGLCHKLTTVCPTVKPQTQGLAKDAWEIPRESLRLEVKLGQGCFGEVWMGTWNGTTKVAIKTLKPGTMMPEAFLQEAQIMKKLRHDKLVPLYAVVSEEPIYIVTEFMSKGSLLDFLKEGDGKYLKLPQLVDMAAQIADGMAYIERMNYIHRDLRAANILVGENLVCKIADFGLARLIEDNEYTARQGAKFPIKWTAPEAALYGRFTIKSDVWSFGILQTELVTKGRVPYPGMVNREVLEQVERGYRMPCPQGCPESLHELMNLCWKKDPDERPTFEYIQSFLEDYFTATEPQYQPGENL

Consider `CC(C)N1CCC(c2cc3cc(C(=O)c4cnn(-c5ccc(Oc6cccc(F)c6F)cc5)c4N)[nH]c3cc2F)CC1` [Example 4-2-004, [5-amino-1-[4-(2,3-difluorophenoxy)phenyl]pyrazol-4-yl]-[6-fluoro-5-(1-propan-2-ylpiperidin-4-yl)-1H-indol-2-yl]methanone], for which the IC50 amounted to 2.3 nM at human Lck enzyme (setting [1]), 0.93 nM on human Yes1 enzyme (setting [1]) and 7.5 nM on human Src enzyme (setting [1]).
Consider `Cc1cc(Oc2c(F)cccc2F)ncc1-n1ncc(C(=O)c2cc3cc(OCC(F)F)c(NS(=O)(=O)c4cccc(Cl)c4)cc3[nH]2)c1N` [Example 5-1-383, N-[2-[5-amino-1-[6-(2,6-difluorophenoxy)-4-methylpyridin-3-yl]pyrazole-4-carbonyl]-5-(2,2-difluoroethoxy)-1H-indol-6-yl]-3-chlorobenzenesulfonamide], for which the IC50 on human Lck enzyme was 270 nM; on human Yes1 enzyme, 9.2 nM; on human Src enzyme, 630 nM.
In the case of `Cc1cc2cc(C(=O)c3cnn(-c4cnc(Oc5ccccc5F)cc4C)c3N)[nH]c2cc1NS(=O)(=O)c1cc(Cl)ccn1` [Example 5-1-509, N-[2-[5-amino-1-[6-(2-fluorophenoxy)-4-methylpyridin-3-yl]pyrazole-4-carbonyl]-5-methyl-1H-indol-6-yl]-4-chloropyridine-2-sulfonamide], the figures for the IC50 at human Lck enzyme (setting [1]), on human Yes1 enzyme (setting [1]) and on human Src enzyme (setting [1]) were 130 nM, 3.7 nM and 840 nM, respectively.
As for `Cc1cc(Oc2c(F)cccc2F)ncc1-n1ncc(C(=O)c2cc3cc(F)c(NC4CCN(S(C)(=O)=O)CC4)cc3[nH]2)c1N` [Example 5-1-113, [5-amino-1-[6-(2,6-difluorophenoxy)-4-methylpyridin-3-yl]pyrazol-4-yl]-[5-fluoro-6-[(1-methylsulfonylpiperidin-4-yl)amino]-1H-indol-2-yl]methanone], the IC50 at human Lck enzyme is 3.3 nM; at human Yes1 enzyme it was 3.9 nM; at human Src enzyme, 41 nM.
As for `Cc1cc(Oc2c(F)cccc2F)ncc1-n1ncc(C(=O)c2cc3cc(OCC(F)F)c(N4CCN(S(C)(=O)=O)CC4)cc3[nH]2)c1N` [Example 4-23-001, {5-amino-1-[6-(2,6-difluorophenoxy)-4-methylpyridin-3-yl]pyrazol-4-yl}-[5-(2,2-difluoroethoxy)-6-(4-methylsulfonylpiperazin-1-yl)-1H-indol-2-yl]methanone], the IC50 at human Lck enzyme (setting [1]) worked out at 8.2 nM; on human Yes1 enzyme (setting [1]) it was 1.3 nM; on human Src enzyme (setting [1]), 16 nM.
The like results for `Cc1cc2cc(C(=O)c3cnn(-c4cnc(Oc5c(F)cccc5F)cc4C)c3N)[nH]c2cc1NS(=O)(=O)c1cccc(F)n1` [Example 5-1-516, N-[2-[5-amino-1-[6-(2,6-difluorophenoxy)-4-methylpyridin-3-yl]pyrazole-4-carbonyl]-5-methyl-1H-indol-6-yl]-6-fluoropyridine-2-sulfonamide] were, in that order, 91 nM, 5.1 nM and 540 nM.
The matching figures for `Cc1cc2cc(C(=O)c3cnn(-c4ccc(Oc5ccccc5F)cc4C)c3N)[nH]c2cc1N1CCOCC1` [Example 4-2-122, [5-amino-1-[4-(2-fluorophenoxy)-2-methylphenyl]pyrazol-4-yl]-(5-methyl-6-morpholin-4-yl-1H-indol-2-yl)methanone]: 7.3 nM, 3.6 nM and 34 nM.
The matching figures for `Cc1cc(Oc2ccccc2Cl)ccc1-n1ncc(C(=O)c2cc3cc(F)c(C4CCN(C(C)C)CC4)cc3[nH]2)c1N` [Example 4-2-012, [5-amino-1-[4-(2-chlorophenoxy)-2-methylphenyl]pyrazol-4-yl]-[5-fluoro-6-(1-propan-2-ylpiperidin-4-yl)-1H-indol-2-yl]methanone]: 4.9 nM, 2.2 nM and 9.4 nM.
Consider `Cc1cc(Oc2ccccc2F)ccc1-n1ncc(C(=O)c2cc3cc(OCC(F)F)c(N4CCCS4(=O)=O)cc3[nH]2)c1N` [Example 4-25-009, [5-amino-1-[4-(2-fluorophenoxy)-2-methylphenyl]pyrazol-4-yl]-[5-(2,2-difluoroethoxy)-6-(1,1-dioxo-1,2-thiazolidin-2-yl)-1H-indol-2-yl]methanone], for which the figures for the IC50 on human Lck enzyme (setting [1]), on human Yes1 enzyme (setting [1]) and on human Src enzyme (setting [1]) were 18 nM, 3.5 nM and 32 nM, respectively.
The like results for `Cc1cc(C#N)cc(S(=O)(=O)Nc2cc3[nH]c(C(=O)c4cnn(-c5cnc(Oc6ccccc6F)cc5C)c4N)cc3cc2C)n1` [Example 5-1-481, N-[2-[5-amino-1-[6-(2-fluorophenoxy)-4-methylpyridin-3-yl]pyrazole-4-carbonyl]-5-methyl-1H-indol-6-yl]-4-cyano-6-methylpyridine-2-sulfonamide] were, in that order, 110 nM, 5.4 nM and 450 nM.
Consider `Cc1cc(Oc2ccccc2F)ccc1-n1ncc(C(=O)c2cc3cc(OCC(F)F)c(N4CC5(CCCC5)NS4(=O)=O)cc3[nH]2)c1N` [Example 5-1-323, [5-amino-1-[4-(2-fluorophenoxy)-2-methylphenyl]pyrazol-4-yl]-[5-(2,2-difluoroethoxy)-6-(2,2-dioxo-2λ6-thia-1,3-diazaspiro[4.4]nonan-3-yl)-1H-indol-2-yl] methanone], for which the IC50 at human Lck enzyme was 40 nM; at human Yes1 enzyme it was 9.1 nM; on human Src enzyme, 230 nM.
As to `Cc1cccc(S(=O)(=O)Nc2cc3[nH]c(C(=O)c4cnn(-c5ccc(Oc6ccccc6F)cc5C)c4N)cc3cc2F)n1` [Example 5-1-532, N-[2-[5-amino-1-[4-(2-fluorophenoxy)-2-methylphenyl]pyrazole-4-carbonyl]-5-fluoro-1H-indol-6-yl]-6-methylpyridine-2-sulfonamide], the IC50 turned out to be 38 nM on human Lck enzyme (setting [1]), 1.6 nM at human Yes1 enzyme (setting [1]) and 290 nM at human Src enzyme (setting [1]).
The matching figures for `Cc1cc(Oc2c(F)cccc2F)ncc1-n1ncc(C(=O)c2cc3cc(OC(F)F)c(N4CCOCC4)cc3[nH]2)c1N` [Example 4-25-023, [5-amino-1-[6-(2,6-difluorophenoxy)-4-methylpyridin-3-yl]pyrazol-4-yl]-[5-(difluoromethoxy)-6-morpholin-4-yl-1H-indol-2-yl]methanone]: 16 nM, 6.3 nM and 86 nM.
Take `Cc1cc2cc(C(=O)c3cnn(-c4cnc(Oc5c(F)cccc5F)cc4C)c3N)[nH]c2cc1N1C(=O)[C@@H]2C[C@@H](O)CN2C1=O` [Example 5-1-455, (6R,7aS)-2-[2-[5-amino-1-[6-(2,6-difluorophenoxy)-4-methylpyridin-3-yl]pyrazole-4-carbonyl]-5-methyl-1H-indol-6-yl]-6-hydroxy-5,6,7,7a-tetrahydropyrrolo[1,2-c]imidazole-1,3-dione]: the IC50 at human Lck enzyme (setting [1]) came to 2.6 nM; on human Yes1 enzyme (setting [1]), 0.86 nM; on human Src enzyme (setting [1]) it was 23 nM.
As for `Cc1cc(-n2ncc(C(=O)c3cc4cc(OC5CCN(C6CCCC6)CC5)c(Br)cc4[nH]3)c2N)ccc1Oc1ccccc1F` [Example 5-1-216, [5-amino-1-[4-(2-fluorophenoxy)-3-methylphenyl]pyrazol-4-yl]-[6-bromo-5-(1-cyclopentylpiperidin-4-yl)oxy-1H-indol-2-yl] methanone], the IC50 stood at 47 nM at human Lck enzyme, 1.7 nM at human Yes1 enzyme and 1000 nM at human Src enzyme.
Consider `Cc1cc2cc(C(=O)c3cnn(-c4ccc(Oc5ccccc5F)cc4C)c3N)[nH]c2cc1NS(=O)(=O)N1CCOCC1` [Example 4-2-105, N-[2-[5-amino-1-[4-(2-fluorophenoxy)-2-methylphenyl]pyrazole-4-carbonyl]-5-methyl-1H-indol-6-yl]morpholine-4-sulfonamide], for which the IC50 at human Lck enzyme (setting [1]) was determined as 24 nM; at human Yes1 enzyme (setting [1]), 0.36 nM; on human Src enzyme (setting [1]), 100 nM.
In the case of `Cc1cc(Oc2c(F)cccc2F)ncc1-n1ncc(C(=O)c2cc3cc(F)c(NS(=O)(=O)C4CCOCC4)cc3[nH]2)c1N` [Example 5-1-381, N-[2-[5-amino-1-[6-(2,6-difluorophenoxy)-4-methylpyridin-3-yl]pyrazole-4-carbonyl]-5-fluoro-1H-indol-6-yl]oxane-4-sulfonamide], the IC50 at human Lck enzyme came to 43 nM; at human Yes1 enzyme, 3.3 nM; on human Src enzyme, 56 nM.
The like results for `Cc1cc(Oc2c(F)cccc2F)ncc1-n1ncc(C(=O)c2cc3cc(OC4CCN(C(C)C)CC4)c(N)cc3[nH]2)c1N` [Example 5-1-183, [5-amino-1-[6-(2,6-difluorophenoxy)-4-methylpyridin-3-yl]pyrazol-4-yl]-[6-amino-5-(1-propan-2-ylpiperidin-4-yl)oxy-1H-indol-2-yl] methanone] were, in that order, 2.8 nM, 0.44 nM and 4.9 nM.
As to `COc1cc2cc(C(=O)c3cnn(-c4cnc(Oc5ccccc5F)cc4C)c3N)[nH]c2cc1NC(=O)N1CCOCC1` [Example 4-12-002, N-[2-[5-amino-1-[6-(2-fluorophenoxy)-4-methylpyridin-3-yl]pyrazole-4-carbonyl]-5-methoxy-1H-indol-6-yl]morpholine-4-carboxamide], the values for the IC50 at human Lck enzyme (setting [1]), on human Yes1 enzyme (setting [1]) and at human Src enzyme (setting [1]) were 8 nM, 3.2 nM and 40 nM, respectively.
The matching figures for `Cc1cc(Oc2ccccc2Cl)cc(F)c1-n1ncc(C(=O)c2cc3cc(F)c(NS(=O)(=O)C4CC4)cc3[nH]2)c1N` [Example 4-7-010, N-[2-[5-amino-1-[4-(2-chlorophenoxy)-2-fluoro-6-methylphenyl]pyrazole-4-carbonyl]-5-fluoro-1H-indol-6-yl]cyclopropanesulfonamide]: 100 nM, 9 nM and 280 nM.
